How the values were obtained:
[1] = tested on: hydroxylated (OH)-HIF-1α at P402 or P564, PHD2, HIF-1β; experiment: Western blot of hydroxylated HIF-1α, PHD2 and HIF-1β in A549 cells; format: cell-based, human; conditions: 1–100 nM, 16 h
Procedure: Figure 4 Compound 12 increased hydroxylation and proteasome-mediated degradation of HIF-1α (A) A549 cells were treated with Compound 12 (at concentrations of 0 nM, 1 nM, 10 nM, and 100 nM) for 16 h. Cells were fixed with paraformaldehyde; an immunofluorescence assay was then performed using anti-HIF-1α antibodies and Alexa Fluor 488-labeled secondary antibodies (green). Nuclei were stained with DAPI. N, normoxia; H, hypoxia. (B) A549 cells were treated with Compound 12 (10 nM concentration) and exposed to hypoxic conditions for 16 h. Cells were immediately treated with cycloheximide (CHX, 100 μg/mL) for the time indicated, and HIF-1α protein levels were determined by western blotting. β-actin was used as an internal control. Half-life (t1/2) of HIF-1α protein was determined using relative expression levels of HIF-1α. (C) A549 cells were treated with Compound 12 (at concentrations of 0 nM, 1 nM, 10 nM, and 100 nM) for 16 h. The expression levels of HIF-1α, hydroxylated (OH)-HIF-1α at P402 or P564, and PHD2 were determined via western blotting using specific antibodies. N, normoxia; H, hypoxia. (D) A549 cells were transfected with two kinds of small interfering RNAs targeting PHD2 and then treated with Compound 12 under hypoxic exposure for 16 h. Cell lysates were immunoblotted with an anti-HIF-1α and PHD2 antibody. (E) After A549 cells were treated with Compound 12 for 16 h, cells were treated with MG132 (20 μM) for 4 h. Cell lysates were immunoprecipitated (IP) with anti-HIF-1α antibody, and were then immunoblotted (IB) with anti-ubiquitin antibody. Relative levels of ubiquitinated HIF-1α were quantified and graphed. […]
Proteins extracted from cells using PRO-PREP (iNtRon Biotech, South Korea) were separated by SDS-PAGE and transferred to a nitrocellulose membrane (Whatman, Maidstone, UK). […] Antibody binding was detected using an enhanced chemiluminescence (ECL) kit (BioRad, Hercules, CA) according to the manufacturer's instructions. […]

[2] = tested on: angiogenesis (hemoglobin content of Matrigel plug); experiment: Matrigel plug assay in C57BL/6J mice; format: in vivo, mouse; conditions: Compound 12 100 nM, gefitinib 5 μM in Matrigel, 10 days
Procedure: HIF-1α is synthesized by growth factor signaling pathways, such as those of EGFR [30] [31]. Inhibition of HIF-1α in its pathways of synthesis, as well as in its pathway of degradation, would seem to make for a more efficient anti-cancer/anti-angiogenesis treatment. To confirm this, we performed a tumor allogaft experiment using Lewis lung carcinoma (LLC) cells. 1 × 10^6 LLC cells were inoculated into the mouse flank subcutaneously (s.c.), and treatment with Compound 12 (5 mg/kg) and/or gefitinib (an EGFR inhibitor, 50 mg/kg), via intraperitoneal (i.p.) administration, was performed every other day for 20 days. […] To confirm the effect of Compound 12 on angiogenesis, we analyzed angiogenesis using the Matrigel plug assay. […]
Figure 6 Compound 12 suppressed allogaft tumor growth and enhanced the effects of a chemotherapeutic agent (A, B) Lewis lung carcinoma cells were inoculated into flanks of C57BL/6J mice (Day 0). […] Tumor size (A) and tumor weight (B) were measured three times a week and on the final day, respectively. […] The content of hemoglobin was quantified and graphed. (D) Tumor tissue sections (10 μm) indicated were stained with H&E and immunostained with anti-CD31 antibody to detect microvessel density; CD31+ cell percentages were then calculated and graphed. […] (F) Images and quantitative comparisons (graph) for Ki67+ proliferating cells in tumor center regions are shown. […]

## COc1ccc(-c2cn(CC3(C)C=Cc4cc([N+](=O)[O-])ccc4O3)nn2)cc1 (stereo not shown) [Compound 12, 4-(4-methoxyphenyl)-1-((2-methyl-6-nitro-2H-chromen-2-yl)methyl)-1H-1,2,3-triazole]
[1]
  HIF-1β expression: did not inhibit
  PHD2 levels: increased even at the lowest dose (1 nM)
  hydroxylation of HIF-1α (P402, P564): increased hydroxylation of HIF-1α in a dose-dependent manner
[2]
  anti-angiogenic activity, Matrigel plug (hemoglobin content): anti-angiogenic activity was increased

From PMC5352362, “Molecular and functional evaluation of a novel HIF inhibitor, benzopyranyl 1,2,3-triazole compound” (Oncotarget, 2016)
